Reference: patent publication US20150314021A1, “STERILIZATION METHOD COMPRISING STERILIZATION FLUID AND ULTRASONICALLY GERERATED CAVITATION MICROBUBBLES” (DEVIS TECHNOLOGIES INC., priority 2012, published 2015)
Where two headings read alike, the source gives them in different places.

Experiments:
[1] = system: Bacillus atrophaeus and Bacillus stearothermophilus; assay: Reduction in viable cell count after 5 min exposure to sterilant and/or ultrasound; format: cell-based
Protocol: Comparative testing with exposure for 5 min to ultrasound at 250 kHz, 500 kHz and 1 MHz and using ultrasound and sterilant in separation as well as in combination was conducted and the reduction in viable cell count was determined using standard methodology.

[2] = system: Bacillus atrophaeus and Bacillus stearothermophilus; assay: Growth of surviving bacteria colonies after exposure; format: cell-based; conditions: 500 kHz test; observed at 24, 48 and 96 hours (FIGS. 8 and 9)
Excerpt: In the parallel tests with hydrogen peroxide and ultrasound, the effect was much less significant (see FIG. 10) than with the test series using ultrasound and ozone. The effect seems to be more evident with ozone than with hydrogen peroxide. […] At the very least their reproductive system appears to have been severely compromised.

[3] = 500 kHz test series, cells suspended in distilled water, ozone 3.7 ppm, hydrogen peroxide 1.5% w/w, glutaraldehyde 0.2%, control normalized 100%

O=CCCCC=O [Glutaraldehyde, glutaraldehdye]
Percentage reduction in number of viable cells upon a 5 minute exposure [1, 3]: 86%

OO [Hydrogen Peroxide, hydrogen peroxide]
inhibition at 1.5 % strength ([1]; 1 MHz test series, cells suspended in distilled water, ozone 3.7 ppm, hydrogen peroxide 1.5% w/w, control normalized 100%, read-out: Percentage reduction in number of viable cells upon a 5 minute exposure): 68%
inhibition at 1.5 % strength ([1]; read-out: Percentage reduction in number of viable cells upon a 5 minute exposure, 500 kHz test series, cells suspended in distilled water, ozone 3.7 ppm, hydrogen peroxide 1.5% w/w, glutaraldehyde 0.2%, control normalized 100%): 59%

O=[O+][O-] [Ozone]
Percentage reduction in number of viable cells upon a 5 minute exposure ([1]; 1 MHz test series, cells suspended in distilled water, ozone 3.7 ppm, hydrogen peroxide 1.5% w/w, control normalized 100%): 71%
Percentage reduction in number of viable cells upon a 5 minute exposure [1, 3]: 81%
growth of surviving bacteria colonies after exposure [2]: bacteria colonies were visible after 24 hours
